Measurements from patent US4801606A (priority 1987, dated 1989).
Converted amounts (≈) assume the structure as drawn. Read-outs that look alike come from different tables or passages of the source.

Columns and labels:
Candida albicans = assay: microbe, parasite or virus in culture
[1] = as described in British patent specification Nos. 1,078,049 and 932,875; cited from earlier work

C=C1CC(OC)(C(O)C(=O)NC2OCOC3C2OC(CC(O)CCC/C=C/C=C/C=C/C(=O)NC(CCCNC(=N)N)C(=O)OC)C(C)(C)C3OC)OC(C)C1C (stereo not shown) [Methyl ester (2), Methyl ester of onnamide A]
MIC (Candida albicans): 5 µg/mL (≈ 6.19 µM)

C=C1CC(OC)(C(O)C(=O)NC2OCOC3C2OC(CC(O)CCC/C=C/C=C/C=C/C(=O)NC(CCCNC(=N)N)C(=O)O)C(C)(C)C3OC)OC(C)C1C (stereo not shown) [Onnamide A (1), onnamide A]
VSV CYT (CV-1 cells; 0.2 ug/well): 0 LS | VSV CYT (CV-1 cells; 2 ug/well): 0 LS | VSV CYT (CV-1 cells; 20 ug/well): 0 LS | MIC (Candida albicans): 50 µg/mL (≈ 63 µM)

C=C1CC(OC)(C(O)C(=O)NC(OC)C2CC(O)C(C)(C)C(CC(COC)OC)O2)OC(C)C1C (stereo not shown) [Pederin]
antimitotic activity [1]: antimitotic activity

C=C1CC(OC)(C(O)C(=O)NC2OCOC3C2OC(CC(O)CCC/C=C/C=C/C=C/C(=O)NC(CCCNc2nc(C)cc(C)n2)C(=O)O)C(C)(C)C3OC)OC(C)C1C (stereo not shown) [Pyrimidine derivative (3)]
MIC (Candida albicans): 50 µg/mL (≈ 58.3 µM)
